Source: ChEMBL document CHEMBL5724914, “Linking interpersonal differences in gut microbiota composition and drug biotransformation activity” (2024)

Tests used:
[1] = (§1) The drug is tested on Z-029 corresponding to rat gut metagenome with ENA study accession number: PRJEB37062 and ENA sample accession number: ERS12561828 for biotransformation under anaerobic condition. The drug concentrations were measured over 9 timepoints collected between 0 and 24 hours of incubation by liquid-chromatography-coupled mass spectrometry (LC–MS); conditions: 2 µM
[2] = as §1, with “on Z-024” for “on Z-029”, “to pig” for “to rat”, “number: ERS12561823” for “number: ERS12561828”; conditions: 2 µM
[3] = as §1, with “Z-023” for “Z-029”, “to” for “to rat gut”, “ERS12561822” for “ERS12561828”; conditions: 2 µM
[4] = as §1, with “on Z-020” for “on Z-029”, “to rabbit” for “to rat”, “number: ERS12561819” for “number: ERS12561828”; conditions: 2 µM
[5] = as §1, with “on Z-016” for “on Z-029”, “to mouse” for “to rat”, “number: ERS12561815” for “number: ERS12561828”; conditions: 2 µM
[6] = as §1, with “on Z-013” for “on Z-029”, “to rabbit” for “to rat”, “number: ERS12561813” for “number: ERS12561828”; conditions: 2 µM
[7] = as §1, with “Z-012” for “Z-029”, “to” for “to rat gut”, “ERS12561812” for “ERS12561828”; conditions: 2 µM
[8] = as §1, with “on Z-009” for “on Z-029”, “to pig” for “to rat”, “number: ERS12561809” for “number: ERS12561828”; conditions: 2 µM
[9] = as §1, with “Z-008” for “Z-029”, “to” for “to rat gut”, “ERS12561808” for “ERS12561828”; conditions: 2 µM
[10] = as §1, with “on Z-006” for “on Z-029”, “to mouse” for “to rat”, “number: ERS12561806” for “number: ERS12561828”; conditions: 2 µM
[11] = as §1, with “Z-005” for “Z-029”, “to” for “to rat gut”, “ERS12561805” for “ERS12561828”; conditions: 2 µM
[12] = as §1, with “on WLS-038” for “on Z-029”, “to human” for “to rat”, “number: ERS12561745” for “number: ERS12561828”; conditions: 2 µM
[13] = as §1, with “on WLS-006” for “on Z-029”, “to human” for “to rat”, “number: ERS12561741” for “number: ERS12561828”; conditions: 2 µM
[14] = human gut metagenome, 24 h, 2 µM
[15] = human gut metagenome, 24 h, 2 µM; remark: listed apart in the source
[16] = human gut metagenome, 24 h, 2 µM; remark: listed apart in the source
[17] = human gut metagenome, 24 h, 2 µM; remark: listed apart in the source
[18] = human gut metagenome, 24 h, 2 µM; remark: listed apart in the source
[19] = human gut metagenome, 24 h, 2 µM; remark: listed apart in the source
[20] = human gut metagenome, 24 h, 2 µM; remark: listed apart in the source
Further: call rule not given here.

Structure (SMILES) | Bacterial Biotransformation [1] | Bacterial Biotransformation [2] | Bacterial Biotransformation [3] | Bacterial Biotransformation [4] | Bacterial Biotransformation [5] | Bacterial Biotransformation [6] | Bacterial Biotransformation [7] | Bacterial Biotransformation [8] | Bacterial Biotransformation [9] | Bacterial Biotransformation [10] | Bacterial Biotransformation [11] | Bacterial Biotransformation [12] | Bacterial Biotransformation [13] | Bacterial Biotransformation [14] | Bacterial Biotransformation [15] | Bacterial Biotransformation [16] | Bacterial Biotransformation [17] | Bacterial Biotransformation [18] | Bacterial Biotransformation [19] | Bacterial Biotransformation [20]
CC(C)NCC(O)COc1ccc(CCOCC2CC2)cc1 (stereo not given) [BETAXOLOL] | Compound NOT metabolized | Compound metabolized | Compound metabolized | Compound NOT metabolized | Compound NOT metabolized | Compound NOT metabolized | Compound NOT metabolized | Compound NOT metabolized | Compound NOT metabolized | Compound NOT metabolized | Compound NOT metabolized | Compound NOT metabolized | Compound NOT metabolized | Compound NOT metabolized | Compound NOT metabolized | Compound NOT metabolized | Compound metabolized | Compound metabolized | Compound NOT metabolized | Compound NOT metabolized
CC(C)(Oc1ccc(CCNC(=O)c2ccc(Cl)cc2)cc1)C(=O)O [BEZAFIBRATE] | Compound NOT metabolized | Compound metabolized | Compound metabolized | Compound NOT metabolized | Compound metabolized | Compound metabolized | Compound NOT metabolized | Compound metabolized | Compound NOT metabolized | Compound NOT metabolized | Compound NOT metabolized | Compound metabolized | Compound metabolized | Compound metabolized | Compound NOT metabolized | Compound metabolized | Compound metabolized | Compound metabolized | Compound metabolized | Compound metabolized
CC(O)(CS(=O)(=O)c1ccc(F)cc1)C(=O)Nc1ccc(C#N)c(C(F)(F)F)c1 (stereo not given) [BICALUTAMIDE] | Compound NOT metabolized | Compound NOT metabolized | Compound NOT metabolized | Compound NOT metabolized | Compound NOT metabolized | Compound NOT metabolized | Compound NOT metabolized | Compound NOT metabolized | Compound NOT metabolized | Compound NOT metabolized | Compound NOT metabolized | Compound NOT metabolized | Compound NOT metabolized | Compound NOT metabolized | Compound NOT metabolized | Compound NOT metabolized | Compound NOT metabolized | Compound NOT metabolized | Compound NOT metabolized | Compound NOT metabolized
CCN(CC)CCOCCOC(=O)C1(c2ccccc2)CCCC1.O=C(O)CC(O)(CC(=O)O)C(=O)O [CARBETAPENTANE CITRATE] | Compound NOT metabolized | Compound metabolized | Compound NOT metabolized | Compound metabolized | Compound metabolized | Compound NOT metabolized | Compound NOT metabolized | Compound metabolized | Compound NOT metabolized | Compound NOT metabolized | Compound metabolized | Compound metabolized | Compound metabolized | Compound metabolized | Compound NOT metabolized | Compound metabolized | Compound metabolized | Compound metabolized | Compound metabolized | Compound metabolized
O=C(O)COCCN1CCN(C(c2ccccc2)c2ccc(Cl)cc2)CC1 (stereo not given) [CETIRIZINE] | Compound NOT metabolized | Compound metabolized | Compound metabolized | Compound NOT metabolized | Compound metabolized | Compound NOT metabolized | Compound metabolized | Compound metabolized | Compound NOT metabolized | Compound NOT metabolized | Compound metabolized | Compound metabolized | Compound metabolized | Compound metabolized | Compound metabolized | Compound metabolized | Compound metabolized | Compound metabolized | Compound metabolized | Compound metabolized
CN/C(=N/CCSCc1nc[nH]c1C)NC#N [CIMETIDINE] | Compound NOT metabolized | Compound NOT metabolized | Compound NOT metabolized | Compound NOT metabolized | Compound NOT metabolized | Compound NOT metabolized | Compound metabolized | Compound NOT metabolized | Compound NOT metabolized | Compound NOT metabolized | Compound metabolized | Compound NOT metabolized | Compound metabolized | Compound NOT metabolized | Compound NOT metabolized | Compound metabolized | Compound metabolized | Compound metabolized | Compound metabolized | Compound NOT metabolized
Br.CN(C)CCCC1(c2ccc(F)cc2)OCc2cc(C#N)ccc21 (stereo not given) [CITALOPRAM HYDROBROMIDE] | Compound NOT metabolized | Compound NOT metabolized | Compound NOT metabolized | Compound NOT metabolized | Compound NOT metabolized | Compound NOT metabolized | Compound NOT metabolized | Compound metabolized | Compound NOT metabolized | Compound NOT metabolized | Compound NOT metabolized | Compound NOT metabolized | Compound metabolized | Compound metabolized | Compound NOT metabolized | Compound metabolized | Compound metabolized | Compound metabolized | Compound metabolized | Compound NOT metabolized
CN(C)CCC=C1c2ccccc2C=Cc2ccccc21 [CYCLOBENZAPRINE] | Compound NOT metabolized | Compound metabolized | Compound metabolized | Compound NOT metabolized | Compound NOT metabolized | Compound NOT metabolized | Compound NOT metabolized | Compound metabolized | Compound NOT metabolized | Compound NOT metabolized | Compound NOT metabolized | Compound NOT metabolized | Compound metabolized | Compound metabolized | Compound NOT metabolized | Compound metabolized | Compound metabolized | Compound metabolized | Compound metabolized | Compound metabolized
